Read-outs that look alike come from different tables or passages of the source.
What was measured:
Assay type in all cases: in vivo
[1] = test system: Triticum aestivum (TRZAS); test: Post-emergence action, greenhouse pot test, visual scoring: TRZAS; details: Triticum aestivum, post-emergence, read-out: % activity found; for plant injury at 200 g/ha: B 200 g of ai/ha
Procedure: (§1) Seeds or rhizome pieces of mono- and dicotyledonous harmful and useful plants were placed in peat pots (diameter 4 cm) filled with sandy loam and then covered with soil. The pots were kept in a greenhouse under optimum conditions. In addition, harmful plants encountered in paddy rice cultivation were cultivated in pots with a water level 2 cm above the soil surface.
(§2) About three weeks after the start of the cultivation, the test plants were treated at the 2- to 3-leaf stage. The herbicides, formulated as powder or liquid concentrates, were, either alone or in the combinations according to the invention, sprayed in various dosages on to the green parts of the plants using an application rate of 600 l of water/ha (converted). For further cultivation of the plants, the pots were then again kept under optimum conditions in a greenhouse.
(§3) The visual scoring of the herbicidal effects was carried out in intervals up to 21 days after the treatment. Scoring was carried out in percent in comparison to the untreated control plants. 0%=no herbicidal activity, 100%=complete herbicidal activity=complete kill.
(§4) The percentages from the treatments with the herbicides alone (=individual application) and with the combinations according to the invention (=mixtures) were employed to calculate interactions using the method of Colby. When the observed efficacies of the mixtures exceed the formal sum of the values of the tests with individual applications, they also exceed the expected value according to Colby, which is calculated using the formula below (cf. S. R. Colby; in Weeds 15 (1967) pp. 20 to 22):
(§5) Here: • A, B=activity of components A and B in percent at a dosage of a and b g of ai/ha (=gramm of active substance per hectare), respectively. • E=expected value in % at a dosage of a+b g of ai/ha.
(§6) The combinations according to the invention of herbicides from group (A) with herbicides from group (B) were tested on a broad spectrum of important harmful plants (weed grasses, broad-leaved weeds/Cyperaceae) and useful plants: Triticum aestivum (TRZAS), Stellaria media (STEME), Lolium multiflorum (LOLMU), Veronica persica (VERPE), Alopecurus myosuroides (ALOMY), Matricaria inodora (MATIN), Brassica napus (BRSNW), Viola tricolor (VIOTR), Avena fatua (AVEFA), Amaranthus retroflexus (AMARE), Zea mays (ZEAMX), Pharbitis purpurea (PHBPU), Setaria viridis (SETVI), Fallopia (ex Polygonum) convolvulus (POLCO), Echinochloa crusgaffi (ECHCG), Abuthilon theophrasti (ABUTH), Cyperus esculentus (CYPES), Oryza sativa (ORYSA).
(§7) Of particular interest are the results shown in the tables (Tab.) below, where the following key is used: • (1) EPPO code (former Bayer code) for the treated plant (see above) • (2) Time of scoring: DAT (days after treatment) • (3) Component A tested (identifying number) • (4) Component B tested (identifying number) • (5) Dosage component A [g of ai/ha] • (6) Dosage component B [g of ai/ha] • (7) % activity found • (8) E value (calculated according to Colby; see above) • (9) Comments: “SYNERGY” =synergistic interaction (E value<% activity found); “SAFENING”=safener action on useful plant (E value>% activity found)

Stellaria media (STEME) = test: Post-emergence action, greenhouse pot test, visual scoring: STEME; details: 10 DAT
Procedure: as §1, §2, §3, §4, §5, §6, §7

[2] = test system: Matricaria inodora (MATIN); test: Post-emergence action, greenhouse pot test, visual scoring: MATIN
Procedure: as §1, §2, §3, §4, §5

Viola tricolor (VIOTR) = test: Post-emergence action, greenhouse pot test, visual scoring: VIOTR; details: 10 DAT
Procedure: as §1, §2, §3, §4, §5, §6, §7

Avena fatua (AVEFA) = test: Post-emergence action, greenhouse pot test, visual scoring: AVEFA; details: 21 DAT
Procedure: as §1, §2, §3, §4, §5, §6, §7

Zea mays (ZEAMX) = test: Post-emergence action, greenhouse pot test, visual scoring: ZEAMX; details: Zea mays, post-emergence, read-out: % activity found; for plant injury at 200 g/ha: B 200 g of ai/ha; for plant injury at 1200 g/ha: B 1200 g of ai/ha
Procedure: as §1, §2, §3, §4, §5, §6, §7

[3] = test system: Pharbitis purpurea (PHBPU); test: Post-emergence action, greenhouse pot test, visual scoring: PHBPU
Procedure: as §1, §2, §3, §4, §5, §6, §7

Setaria viridis (SETVI) = test: Post-emergence action, greenhouse pot test, visual scoring: SETVI; details: Setaria viridis, post-emergence, 504 h, 21 DAT, read-out: % activity found
Procedure: as §1, §2, §3, §4, §5, §6, §7

[4] = test system: Fallopia (ex Polygonum) convolvulus (POLCO); test: Post-emergence action, greenhouse pot test, visual scoring: POLCO; details: 21 DAT
Procedure: as §1, §2, §3, §4, §5, §6, §7

[5] = test system: Abuthilon theophrasti (ABUTH); test: Post-emergence action, greenhouse pot test, visual scoring: ABUTH; details: 21 DAT
Procedure: as §1, §2, §3, §4, §5, §6, §7

[6] = test system: Cyperus esculentus (CYPES); test: Post-emergence action, greenhouse pot test, visual scoring: CYPES; details: 21 DAT
Procedure: as §1, §2, §3, §4, §5

Oryza sativa (ORYSA) = test: Post-emergence action, greenhouse pot test, visual scoring: ORYSA; details: Oryza sativa, post-emergence, read-out: % activity found
Procedure: as §1, §2, §3, §4, §5, §6, §7

[7] = test system: Lolium multiflorum (LOLMU); test: Post-emergence action, greenhouse pot test, visual scoring: LOLMU; details: 10 DAT, B 400 g of ai/ha
Procedure: as §1, §2, §3, §4, §5, §6, §7

Veronica persica (VERPE) = test: Post-emergence action, greenhouse pot test, visual scoring: VERPE
Procedure: as §1, §2, §3, §4, §5, §6, §7

[8] = test system: Alopecurus myosuroides (ALOMY); test: Post-emergence action, greenhouse pot test, visual scoring: ALOMY; details: Alopecurus myosuroides, post-emergence, read-out: % activity found; for pest or weed control at 400 g/ha: B 400 g of ai/ha
Procedure: as §1, §2, §3, §4, §5

[9] = test system: Amaranthus retroflexus (AMARE); test: Post-emergence action, greenhouse pot test, visual scoring: AMARE; details: 10 DAT
Procedure: as §1, §2, §3, §4, §5

[10] = 504 h, 21 DAT, B 600 g of ai/ha
[11] = 240 h, 10 DAT, B 400 g of ai/ha

For `CN(C(=O)COc1nc2ccccc2s1)c1ccccc1` [B3-4, 2-(2-benzothiazolyloxy)-N-methyl-N-phenylacetamide], which plant injury at 200 g/ha ([1]; 240 h, 10 DAT) is on record?
The plant injury at 200 g/ha was 10%.

And the plant injury at 200 g/ha ([1]; 504 h, 21 DAT)?
The plant injury at 200 g/ha was 0%.

And the “% activity found” value (Stellaria media (STEME); B 200 g of ai/ha)?
The value was 10%.

What about the “% activity found” value ([2]; 10 DAT, B 200 g of ai/ha) of the same molecule?
Its value is 0%.

And the “% activity found” value ([2]; 10 DAT, B 600 g of ai/ha)?
Its value is 0%.

What about the “% activity found” value ([2]; 21 DAT, B 200 g of ai/ha) of the same molecule?
The value was 0%.

What about the “% activity found” value ([2]; 21 DAT, B 600 g of ai/ha) of the same molecule?
Its value is 20%.

And the “% activity found” value (Viola tricolor (VIOTR); B 200 g of ai/ha)?
Its value is 0%.

What about the “% activity found” value (Viola tricolor (VIOTR); B 600 g of ai/ha) of the same molecule?
Its value is 0%.

And the “% activity found” value (Avena fatua (AVEFA); B 200 g of ai/ha)?
Its value is 0%.

What about the plant injury at 200 g/ha (Zea mays (ZEAMX); 240 h, 10 DAT) of the same molecule?
The plant injury at 200 g/ha was 0%.

And the plant injury at 200 g/ha (Zea mays (ZEAMX); 504 h, 21 DAT)?
The plant injury at 200 g/ha was 0%.

And the plant injury at 600 g/ha (Zea mays (ZEAMX); [10])?
The plant injury at 600 g/ha was 10%.

And the “% activity found” value ([3]; 21 DAT, B 200 g of ai/ha)?
Its value is 0%.

And the pest or weed control at 200 g/ha (Setaria viridis (SETVI); B 200 g of ai/ha)?
Its pest or weed control at 200 g/ha is 30%.

And the “% activity found” value ([4]; B 200 g of ai/ha)?
The value was 0%.

What about the “% activity found” value ([4]; B 600 g of ai/ha) of the same molecule?
Its value is 0%.

And the “% activity found” value ([5]; B 200 g of ai/ha)?
The value was 0%.

And the “% activity found” value ([5]; B 600 g of ai/ha)?
The value was 0%.

And the “% activity found” value ([6]; B 200 g of ai/ha)?
Its value is 0%.

What about the “% activity found” value ([6]; B 600 g of ai/ha) of the same molecule?
The value was 0%.

What about the plant injury at 600 g/ha (Oryza sativa (ORYSA); [10]) of the same molecule?
The plant injury at 600 g/ha was 20%.

For `CCCCOCN(C(=O)CCl)c1c(CC)cccc1CC` [B4-3, N-(butoxymethyl)-2-chloro-N-(2,6-diethylphenyl)acetamide], which plant injury at 400 g/ha [1, 11] is on record?
The plant injury at 400 g/ha was 0%.

And the “% activity found” value (Stellaria media (STEME); B 400 g of ai/ha)?
Its value is 0%.

What about the “% activity found” value [7] of the same molecule?
Its value is 40%.

And the “% activity found” value (Veronica persica (VERPE); 10 DAT, B 400 g of ai/ha)?
Its value is 0%.

And the “% activity found” value (Veronica persica (VERPE); 10 DAT, B 1200 g of ai/ha)?
Its value is 0%.

What about the “% activity found” value (Veronica persica (VERPE); 21 DAT, B 1200 g of ai/ha) of the same molecule?
Its value is 20%.

What about the pest or weed control at 400 g/ha ([8]; 240 h, 10 DAT) of the same molecule?
The pest or weed control at 400 g/ha was 20%.

And the pest or weed control at 400 g/ha ([8]; 504 h, 21 DAT)?
Its pest or weed control at 400 g/ha is 0%.

What about the pest or weed control at 1200 g/ha ([8]; 504 h, 21 DAT, B 1200 g of ai/ha) of the same molecule?
Its pest or weed control at 1200 g/ha is 50%.

And the “% activity found” value ([2]; 10 DAT, B 400 g of ai/ha)?
The value was 0%.

What about the “% activity found” value ([2]; 10 DAT, B 1200 g of ai/ha) of the same molecule?
Its value is 20%.

What about the “% activity found” value ([2]; 21 DAT, B 400 g of ai/ha) of the same molecule?
Its value is 0%.

What about the “% activity found” value ([2]; 21 DAT, B 1200 g of ai/ha) of the same molecule?
The value was 40%.

What about the “% activity found” value (Avena fatua (AVEFA); B 1200 g of ai/ha) of the same molecule?
Its value is 50%.

What about the “% activity found” value ([9]; B 400 g of ai/ha) of the same molecule?
Its value is 0%.

And the “% activity found” value ([9]; B 1200 g of ai/ha)?
The value was 0%.

What about the plant injury at 1200 g/ha (Zea mays (ZEAMX); 240 h, 10 DAT) of the same molecule?
Its plant injury at 1200 g/ha is 20%.

What about the plant injury at 1200 g/ha (Zea mays (ZEAMX); 504 h, 21 DAT) of the same molecule?
Its plant injury at 1200 g/ha is 0%.

And the “% activity found” value ([3]; 10 DAT, B 400 g of ai/ha)?
The value was 0%.

What about the “% activity found” value ([3]; 10 DAT, B 1200 g of ai/ha) of the same molecule?
The value was 0%.

And the “% activity found” value ([3]; 21 DAT, B 400 g of ai/ha)?
Its value is 0%.

What about the “% activity found” value ([3]; 21 DAT, B 1200 g of ai/ha) of the same molecule?
Its value is 0%.

And the pest or weed control at 400 g/ha (Setaria viridis (SETVI); B 400 g of ai/ha)?
Its pest or weed control at 400 g/ha is 0%.

What about the “% activity found” value ([4]; B 400 g of ai/ha) of the same molecule?
The value was 0%.

What about the “% activity found” value ([4]; B 1200 g of ai/ha) of the same molecule?
The value was 0%.

And the “% activity found” value ([5]; B 400 g of ai/ha)?
The value was 0%.

What about the plant injury at 400 g/ha (Oryza sativa (ORYSA); [11]) of the same molecule?
The plant injury at 400 g/ha was 0%.

From patent US20100099564A1, “HERBICIDE COMBINATION COMPRISING DIMETHOXYTRIAZINYL-SUBSTITUTED DIFLUOROMETHANESULFONYLANILIDES” (BAYER CROPSCIENCE AG, priority 2008, published 2010)
